Values after ≈ are worked out from the molar mass of the structure shown. Active and inactive are the calls of the source. The calls are words filed in the database; no cut-off is given here.
Experiments:
KB = assay: Cytotoxicity against human KB cells; assay type: functional, cell-based
LoVo = assay: Cytotoxicity against human LoVo cells; assay type: functional, cell-based
P388 = assay: Cytotoxicity against mouse P388 cells; assay type: functional, cell-based
Human alphaherpesvirus 2 = assay: Antiviral activity against HSV2; assay type: functional

O[C@]12C=C(c3nccc4c3[nH]c3ccccc34)[C@@H]3CCN(CCCC/C=C\CC1)C[C@@]31C[C@@H]3/C=C\CCCCN3[C@H]12 [MANZAMINE A]
IC50 (KB): 0.05 µg/mL (≈ 0.0911 µM) | IC50 (LoVo): 0.15 µg/mL (≈ 0.273 µM) | IC50 (P388): 0.07 µg/mL (≈ 0.128 µM) | MIC (Human alphaherpesvirus 2): 0.05 µg/mL (≈ 0.0911 µM)

Oc1cccc2c1[nH]c1c(C3=C[C@@]4(O)CC/C=C\CCCCN5CC[C@@H]3[C@]3(CC6/C=C\CCCCN6[C@H]34)C5)nccc12 (stereo partly specified)
IC50 (KB): 0.3 µg/mL (≈ 0.531 µM) | IC50 (LoVo): 0.26 µg/mL (≈ 0.46 µM) | Activity (P388): inactive | MIC (Human alphaherpesvirus 2): 0.1 µg/mL (≈ 0.177 µM)

COc1cccc2c1[nH]c1c(C3=C[C@@]4(O)CC/C=C\CCCCN5CC[C@@H]3[C@]3(C[C@@H]6/C=C\CCCCN6[C@H]34)C5)nccc12 [8-METHOXYMANZAMINE A]
IC50 (KB): 0.33 µg/mL (≈ 0.57 µM) | IC50 (LoVo): 0.1 µg/mL (≈ 0.173 µM) | MIC (Human alphaherpesvirus 2): 0.1 µg/mL (≈ 0.173 µM)

Reference: ChEMBL document CHEMBL1149034, “8-Hydroxymanzamine A, a beta-carboline alkaloid from a sponge, Pachypellina sp” (J Nat Prod, 1994)
